The test system of series [1] is TSPO. Set-up: method as in PMID 22008728. The conditions noted are these: TSPO SNP Ala147Thr; cited from earlier work.
The next series relates to p-glycoprotein-ABCB1. Set-up: method as in PMID 19948230. Particulars: cited from earlier work.
For series [2], the target named is TSPO (Homo sapiens, UniProt P30536). Kind of series: PET, modified 2TCM with shared K1/k2. Type of series: in vivo. Set-up: from tissue; host or cells: living human brain (in vivo PET in six control subjects). Particulars: first PET measurement. The protocol:
In addition, data were analysed using a modified 2TCM model which fitted parameters K1/k2, k2, k3 and k4 of the model to several TACs simultaneously in a way that the parameter K1/k2 was shared between regions. First, all ROIs primarily consisting of the grey matter, including the ROI of the typical GM uptake, were fitted in this way then followed by a fit involving white matter regions and, again, the ROI of the typical GM uptake. The ROI of the typical GM uptake was used in the second fitting session to allow for a coupling of K1/k2 between that region and white matter ROIs. However, the parameters obtained for the typical GM ROI in the first session were retained for final analysis.

The test system of a further series is ABCG2. On the set-up: method as in PMID 19948230. The conditions noted are these: cited from earlier work.
[3] abbreviates: cortical grey matter, individual subjects 1-6.
Where [4] appears, read: cortical grey matter, mean of 6 subjects.
Setting [5] is: white matter, individual subjects 1-6.
Setting [6] is: white matter, mean of 6 subjects.

Values joined by “and” are separate entries in the source; they are usually repeats but may differ in a detail not shown here. Equal entries are not always repeated.

Sequence of TSPO (Homo sapiens, UniProt P30536) (P30536 whole entry): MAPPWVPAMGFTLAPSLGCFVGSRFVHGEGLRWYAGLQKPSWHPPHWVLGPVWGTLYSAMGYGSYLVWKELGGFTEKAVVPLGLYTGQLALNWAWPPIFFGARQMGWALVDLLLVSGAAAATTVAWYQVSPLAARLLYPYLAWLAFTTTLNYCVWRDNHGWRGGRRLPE

With `CC[C@@H](C)N([11CH3])C(=O)c1cc2ccccc2c(-c2ccccc2Cl)n1` [[^11C](R)-PK11195], the “sensitivity to TSPO genotype” value in the series with TSPO [1] is “not sensitive to TSPO genotype”. The “substrate for ABC transporter” value in the series with p-glycoprotein-ABCB1 and in the series on ABCG2 was “not a substrate” in each case. For the same compound, the k2 at TSPO [2] (cortical grey matter) was 0.228 min⁻¹; on TSPO [2] (setting [3]), 0.180 min⁻¹ and 0.236 min⁻¹ and 0.228 min⁻¹ and 0.307 min⁻¹ and 0.185 min⁻¹ and 0.235 min⁻¹; at TSPO [2] (white matter), 0.159 min⁻¹; at TSPO [2] (setting [5]), 0.169 min⁻¹ and 0.180 min⁻¹ and 0.159 min⁻¹ and 0.129 min⁻¹ and 0.182 min⁻¹ and 0.138 min⁻¹. In addition, the k3 on TSPO [2] (cortical grey matter) is 0.053 min⁻¹; on TSPO [2] (setting [3]) it was 0.021 min⁻¹ and 0.055 min⁻¹ and 0.046 min⁻¹ and 0.124 min⁻¹ and 0.035 min⁻¹ and 0.036 min⁻¹; on TSPO [2] (white matter), 0.036 min⁻¹; at TSPO [2] (setting [5]) it was 0.040 min⁻¹ and 0.045 min⁻¹ and 0.046 min⁻¹ and 0.026 min⁻¹ and 0.033 min⁻¹ and 0.024 min⁻¹. For the same compound, the K1 on TSPO [2] (setting [3]) is 0.050 mL/cc/min and 0.092 mL/cc/min and 0.070 mL/cc/min and 0.089 mL/cc/min and 0.046 mL/cc/min and 0.080 mL/cc/min; at TSPO [2] (setting [4]), 0.071 mL/cc/min; at TSPO [2] (setting [5]), 0.067 mL/cc/min and 0.056 mL/cc/min and 0.062 mL/cc/min and 0.032 mL/cc/min and 0.061 mL/cc/min and 0.036 mL/cc/min; on TSPO [2] (setting [6]), 0.052 mL/cc/min. For the same compound, the k4 on TSPO [2] (setting [3]) was 0.014 min⁻¹ and 0.054 min⁻¹ and 0.025 min⁻¹ and 0.061 min⁻¹ and 0.026 min⁻¹ and 0.020 min⁻¹; at TSPO [2] (setting [4]), 0.033 min⁻¹; on TSPO [2] (setting [5]), 0.033 min⁻¹ and 0.021 min⁻¹ and 0.027 min⁻¹ and 0.013 min⁻¹ and 0.012 min⁻¹; on TSPO [2] (setting [6]), 0.020 min⁻¹.

The values above are taken from article PMC3350394, “Kinetic analysis and test-retest variability of the radioligand [^11C](R)-PK11195 binding to TSPO in the human brain - a PET study in control subjects” (EJNMMI Research, 2012).
